Experimental data taken from patent publication US10568876B2, “Tetrahydroisoquinoline derivatives useful as inhibitors of diacylglyceride O-acyltransferase 2” (Merck Sharp & Dohme Corp., priority 2014, dated 2020).

Molecular target: hDGAT2 (Homo sapiens (Human), UniProt Q96PD7)
Assay: DGAT2 Enzymatic Activity Assay
Format: biochemical
Conditions: hDGAT2 Sf-9 membrane prep; 25 μM diolein, 10 μM oleoyl-CoA; triolein product by LC/MS/MS; read-out: IC50 values for inhibition of DGAT2
Procedure, shortened: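 Membranes from Sf-9 cells expressing untagged hDGAT2 (10 ng/μL) incubated at room temperature with 25 μM diolein and 10 μM oleoyl-CoA in 100 mM Tris pH 7.0, 20 mM MgCl2, 5% ethanol. Triolein product quantified by LC/MS/MS against spiked internal standard; IC50 from 4-parameter sigmoidal fit.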

hDGAT2, sequence (Q96PD7 whole entry): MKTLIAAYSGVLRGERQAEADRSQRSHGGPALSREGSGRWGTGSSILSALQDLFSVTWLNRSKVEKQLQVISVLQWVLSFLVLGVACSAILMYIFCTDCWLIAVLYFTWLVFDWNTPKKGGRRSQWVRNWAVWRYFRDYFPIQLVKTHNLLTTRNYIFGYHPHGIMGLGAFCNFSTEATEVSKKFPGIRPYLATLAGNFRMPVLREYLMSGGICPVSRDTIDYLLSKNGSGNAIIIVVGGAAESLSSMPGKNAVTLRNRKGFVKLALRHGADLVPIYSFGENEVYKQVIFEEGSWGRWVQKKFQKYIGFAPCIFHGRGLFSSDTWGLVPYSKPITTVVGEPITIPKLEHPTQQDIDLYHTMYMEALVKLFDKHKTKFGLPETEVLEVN

| SMILES | IC50 [nM] |
| --- | --- |
| COC(=O)c1cccc(-c2ccc(CNC(=O)C3CC3c3ccccc3)c3c2CCN(Cc2ccccn2)C3)c1 (stereo not shown) [Example 94, methyl 3-(8-((2-phenylcyclopropanecarboxamido)methyl)-2-(pyridin-2-ylmethyl)-1,2,3,4-tetrahydroisoquinolin-5-yl)benzoate] | 247 |
| Cc1noc([C@@H]2C[C@H]2C(=O)NCc2ccc(-c3cccc(OC(F)(F)F)c3)c3c2CN(C(=O)Nc2ccon2)CC3)n1 (relative stereo) [Example 2, N-(isoxazol-3-yl)-8-(((trans)-2-(3-methyl-1,2,4-oxadiazol-5-yl)cyclopropanecarboxamido)methyl)-5-(3-(trifluoromethoxy)phenyl)-3,4-dihydroisoquinoline-2(1H)-carboxamide] | 112 |
| Cc1noc([C@@H]2C[C@H]2C(=O)NCc2ccc(-c3cccc(OC(F)(F)F)c3)c3c2CN(CC(=O)N2COCC2(C)C)CC3)n1 (relative stereo) [Example 103, (trans)-N-((2-(2-(4,4-dimethyloxazolidin-3-yl)-2-oxoethyl)-5-(3-(trifluoromethoxy)phenyl)-1,2,3,4-tetrahydroisoquinolin-8-yl)methyl)-2-(3-methyl-1,2,4-oxadiazol-5-yl)cyclopropanecarboxamide] | 1760 |
| COc1cccc(-c2ccc(CNC(=O)C3CC3c3ccccc3)c3c2CCN(c2ncccn2)C3)c1 (stereo not shown) [Example 110, N-((5-(3-methoxyphenyl)-2-(pyrimidin-2-yl)-1,2,3,4-tetrahydroisoquinolin-8-yl)methyl)-2-phenylcyclopropanecarboxamide] | 3200 |
| Cc1noc([C@@H]2C[C@H]2C(=O)NCc2ccc(-c3cccc(C(F)(F)F)c3)c3c2CN(C(=O)NC2(C)COC2)CC3)n1 (relative stereo) [Example 69, 8-(((trans)-2-(3-methyl-1,2,4-oxadiazol-5-yl)cyclopropanecarboxamido)methyl)-N-(3-methyloxetan-3-yl)-5-(3-(trifluoromethyl)phenyl)-3,4-dihydroisoquinoline-2(1H)-carboxamide] | 19.6 |
| COC(=O)c1cccc(-c2ccc(CNC(=O)C3CC3c3ccccc3)c3c2CCN(C(=O)c2ccccc2F)C3)c1 (stereo not shown) [Example 139, methyl 3-(2-(2-fluorobenzoyl)-8-((2-phenylcyclopropanecarboxamido)methyl)-1,2,3,4-tetrahydroisoquinolin-5-yl)benzoate] | 219 |
| COC(=O)c1cccc(-c2ccc(CNC(=O)C3CC3c3ccccc3)c3c2CCN(C(=O)c2ccc(F)cc2)C3)c1 (stereo not shown) [Example 141, methyl 3-(2-(4-fluorobenzoyl)-8-((2-phenylcyclopropanecarboxamido)methyl)-1,2,3,4-tetrahydroisoquinolin-5-yl)benzoate] | 279 |
| COC(=O)c1cccc(-c2ccc(CNC(=O)C3CC3c3ccccc3)c3c2CCN(C(=O)NC2CC(F)(F)C2)C3)c1 (stereo not shown) [Example 56, methyl 3-(2-((3,3-difluorocyclobutyl)carbamoyl)-8-((2-phenylcyclopropanecarboxamido)methyl)-1,2,3,4-tetrahydroisoquinolin-5-yl) benzoate] | 9.88 |
| COC(=O)c1cccc(-c2ccc(CNC(=O)C3CC3c3ccccc3)c3c2CCN(Cc2ccc(F)cc2)C3)c1 (stereo not shown) [Example 98, methyl 3-(2-(4-fluorobenzyl)-8-((2-phenylcyclopropanecarboxamido)methyl)-1,2,3,4-tetrahydroisoquinolin-5-yl)benzoate] | 2680 |
| CCN(CC)C(=O)CN1CCc2c(-c3cccc(OC(F)(F)F)c3)ccc(CNC(=O)C3CC3c3nc(C)no3)c2C1 (stereo not shown) [Example 81, N-((2-(2-(diethylamino)-2-oxoethyl)-5-(3-(trifluoromethoxy)phenyl)-1,2,3,4-tetrahydroisoquinolin-8-yl)methyl)-2-(3-methyl-1,2,4-oxadiazol-5-yl)cyclopropanecarboxamide] | 658 |
| COC[C@H]1CCC[C@H]1NC(=O)CN1CCc2c(-c3cccc(OC(F)(F)F)c3)ccc(CNC(=O)C3CC3c3nc(C)no3)c2C1 (stereo in doubt) [Example 86, N-((2-(2-(((trans)-2-(methoxymethyl)cyclopentyl)amino)-2-oxoethyl)-5-(3-(trifluoromethoxy)phenyl)-1,2,3,4-tetrahydroisoquinolin-8-yl)methyl)-2-(3-methyl-1,2,4-oxadiazol-5-yl)cyclopropanecarboxamide] | 2290 |
| Cc1noc([C@@H]2C[C@H]2C(=O)NCc2ccc(-c3cccc(OC(F)(F)F)c3)c3c2CN(Cc2ccncn2)CC3)n1 (relative stereo) [Example 105, (trans)-2-(3-methyl-1,2,4-oxadiazol-5-yl)-N-((2-(pyrimidin-4-ylmethyl)-5-(3-(trifluoromethoxy)phenyl)-1,2,3,4-tetrahydroisoquinolin-8-yl)methyl)cyclopropanecarboxamide] | 2610 |
| Cc1noc(C2CC2C(=O)NCc2ccc(-c3cccc(OC(F)(F)F)c3)c3c2CN(C(=O)NC2CCS(=O)(=O)C2)CC3)n1 (stereo not shown) [Example 76, N-(1,1-dioxidotetrahydrothiophen-3-yl)-8-((2-(3-methyl-1,2,4-oxadiazol-5-yl)cyclopropanecarboxamido)methyl)-5-(3-(trifluoromethoxy)phenyl)-3,4-dihydroisoquinoline-2(1H)-carboxamide] | 238 |
| COC(=O)c1cccc(-c2ccc(CNC(=O)C3CC3c3ccccc3)c3c2CCN(C(=O)CC2CC2)C3)c1 (stereo not shown) [Example 125, methyl 3-(2-(2-cyclopropylacetyl)-8-((2-phenylcyclopropanecarboxamido)methyl)-1,2,3,4-tetrahydroisoquinolin-5-yl)benzoate] | 209 |
| Cc1noc([C@@H]2C[C@H]2C(=O)NCc2ccc(-c3cccc(OC(F)(F)F)c3)c3c2CN(C(=O)NC2COC2)CC3)n1 (relative stereo) [Example 73, 8-(((trans)-2-(3-methyl-1,2,4-oxadiazol-5-yl)cyclopropanecarboxamido)methyl)-N-(oxetan-3-yl)-5-(3-(trifluoromethoxy)phenyl)-3,4-dihydroisoquinoline-2(1H)-carboxamide] | 52 |

Now from value to molecule:

| IC50 [nM] | SMILES |
| --- | --- |
| 1430 | CC(C)(C)NC(=O)N1CCc2c(-c3cccc(C(=O)NC4CC4)c3)ccc(CNC(=O)[C@@H]3C[C@H]3c3ccccc3)c2C1 (relative stereo) [Example 38, N-(tert-butyl)-5-(3-(cyclopropylcarbamoyl)phenyl)-8-(((trans)-2-phenylcyclopropanecarboxamido)methyl)-3,4-dihydroisoquinoline-2(1H)-carboxamide] |
| 6.1 | COc1cccc(-c2ccc(CNC(=O)C3CC3c3cccnc3)c3c2CCN(C(=O)NC(C)(C)C)C3)c1 (stereo not shown) [Example 13, N-(tert-butyl)-5-(3-methoxyphenyl)-8-((2-(pyridin-3-yl)cyclopropanecarboxamido)methyl)-3,4-dihydroisoquinoline-2(1H)-carboxamide] |
| 2100 | COc1cccc(-c2ccc(CNC(=O)[C@@H]3C[C@H]3c3ccccc3)c3c2CCN(C(=O)Nc2ccncc2)C3)c1 (relative stereo) [Example 18, 5-(3-methoxyphenyl)-8-(((trans)-2-phenylcyclopropanecarboxamido)methyl)-N-(pyridin-4-yl)-3,4-dihydroisoquinoline-2(1H)-carboxamide] |
| 8.5 | COc1cccc(-c2ccc(CNC(=O)[C@H]3C[C@@H]3c3cccnc3)c3c2CCN(C(=O)NC(C)(C)C)C3)c1 (relative stereo) [Example 19, N-(tert-butyl)-5-(3-methoxyphenyl)-8-(((trans)-2-(pyridin-3-yl)cyclopropanecarboxamido)methyl)-3,4-dihydroisoquinoline-2(1H)-carboxamide] |
| 1.13 | COC(=O)c1cccc(-c2ccc(CNC(=O)[C@H]3C[C@@H]3c3ccccc3)c3c2CCN(C(=O)NC2(C)CC2)C3)c1 (relative stereo) [Example 54, methyl 3-(2-((1-methylcyclopropyl)carbamoyl)-8-(((trans)-2-phenylcyclopropanecarboxamido)methyl)-1,2,3,4-tetrahydroisoquinolin-5-yl) benzoate] |
| 1440 | Cc1noc(C)c1-c1ccc(CNC(=O)[C@@H]2C[C@H]2c2ccccc2)c2c1CCN(C(=O)NC(C)(C)C)C2 (relative stereo) [Example 41, N-(tert-butyl)-5-(3,5-dimethylisoxazol-4-yl)-8-(((trans)-2-phenylcyclopropanecarboxamido)methyl)-3,4-dihydroisoquinoline-2(1H)-carboxamide] |
| 3130 | CC(C)(C)NC(=O)N1CCc2c(-c3ccn4ncnc4c3)ccc(CNC(=O)[C@@H]3C[C@H]3c3ccccc3)c2C1 (relative stereo) [Example 43, 5-([1,2,4]triazolo[1,5-a]pyridin-7-yl)-N-(tert-butyl)-8-(((trans)-2-phenylcyclopropanecarboxamido)methyl)-3,4-dihydroisoquinoline-2(1H)-carboxamide] |
| 1460 | CC(C)(C)NC(=O)N1CCc2c(-c3ccnc4[nH]ccc34)ccc(CNC(=O)[C@@H]3C[C@H]3c3ccccc3)c2C1 (relative stereo) [Example 32, N-(tert-butyl)-8-(((trans)-2-phenylcyclopropanecarboxamido)methyl)-5-(1H-pyrrolo[2,3-b]pyridin-4-yl)-3,4-dihydroisoquinoline-2(1H)-carboxamide] |
| 20.2 | CC(C)(C)NC(=O)N1CCc2c(-c3cccc(C(C)(C)O)c3)ccc(CNC(=O)[C@@H]3C[C@H]3c3ccccc3)c2C1 (relative stereo) [Example 52, N-(tert-butyl)-5-(3-(2-hydroxypropan-2-yl)phenyl)-8-(((trans)-2-phenylcyclopropanecarboxamido)methyl)-3,4-dihydroisoquinoline-2(1H)-carboxamide] |
| 10.4 | CC(C)(C)NC(=O)N1CCc2c(-c3cccc(-c4nnco4)c3)ccc(CNC(=O)[C@@H]3C[C@H]3c3ccccc3)c2C1 (relative stereo) [Example 49, 5-(3-(1,3,4-oxadiazol-2-yl)phenyl)-N-(tert-butyl)-8-(((trans)-2-phenylcyclopropanecarboxamido)methyl)-3,4-dihydroisoquinoline-2(1H)-carboxamide] |
